Test results: patent publication US20250179028A1, “ACRYLAMIDE COMPOUNDS” (NRG THERAPEUTICS LTD, priority 2022, published 2025)
Converted amounts (≈) assume the structure as drawn. Where two headings read alike, the source gives them in different places.

Key:
[1] = target: CYP2D6 (Homo sapiens (Human), UniProt P10635); assay: Cytochrome P450 CYP2D6 inhibition in human liver microsomes; format: in vitro ADME; settings: for IC50 / inhibition at 20 min, 1 µM: human liver microsomes, average value from two experiments; for inhibition at 20 min, 1 µM: probe dextromethorphan 2 µM (dextrorphan formation), 1 uM test compound, negative values = no effective inhibition
Method in brief: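 Human liver microsomes (0.2 mg/mL) with 2 μM dextromethorphan in 100 mM PBS, test compound at 1 μM or 0.1-30 μM, 15 min preincubation then NADPH-started reaction for 20 min at 37° C, in duplicate. Dextrorphan formation by UPLC-MS/MS; IC50 from % decrease versus uninhibited control.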

[2] = PBS and FaSSIF solubility; format: physicochemical; settings: kinetic from dmso stock
Method in brief: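 Solubility was measured from 10 mM DMSO stocks diluted into FaSSIF or PBS pH 7.4, in duplicate, then shaken at 1100 rpm for 2 hr at 25 °C. Filtrates were quantified by LC-MS/MS against an internal standard and a known-concentration standard.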

[3] = Hepatocyte clearance assay, human; format: in vitro ADME; settings: cryopreserved primary human hepatocytes, average value from two experiments, read-out: Human heps Clint
Method in brief: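 Cryopreserved rat or human hepatocytes, 0.5×10^6 viable cells/mL in L-15 medium, incubated with compound at 37 °C; samples to 120 min, duplicate. Parent loss by LC/MS/MS; t½ = 0.693/k from ln-linear regression, converted to CLint in μL/min/1×10^6 cells.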

[4] = aqueous buffer, PBS pH 7.4, 2 hr at 25° C., read-out: Solubility PBS (pH 7.4)
[5] = fasted state simulated intestinal fluid (FaSSIF), fassif, Fasted state simulated intestinal fluid, 2 hr at 25° C., read-out: Solubility FaSSIF

Sequence of CYP2D6 (P10635 whole entry): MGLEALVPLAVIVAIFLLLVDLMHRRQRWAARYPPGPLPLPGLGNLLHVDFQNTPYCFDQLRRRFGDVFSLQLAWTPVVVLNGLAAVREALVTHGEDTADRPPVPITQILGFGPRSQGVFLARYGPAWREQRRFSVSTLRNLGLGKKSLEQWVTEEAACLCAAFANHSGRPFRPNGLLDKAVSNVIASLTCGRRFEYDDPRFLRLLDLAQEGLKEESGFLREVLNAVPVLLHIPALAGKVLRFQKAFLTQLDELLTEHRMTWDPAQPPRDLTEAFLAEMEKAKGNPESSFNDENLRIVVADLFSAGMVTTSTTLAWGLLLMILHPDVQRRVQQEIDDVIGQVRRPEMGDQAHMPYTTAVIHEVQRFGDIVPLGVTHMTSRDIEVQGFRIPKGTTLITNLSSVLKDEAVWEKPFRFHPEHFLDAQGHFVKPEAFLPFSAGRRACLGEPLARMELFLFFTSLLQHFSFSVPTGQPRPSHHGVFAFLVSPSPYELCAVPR

Structure (SMILES)	inhibition of CYP2D6 (in words) [1]	IC50 [1] [µM]	inhibition at 20 min, 1 µM [1] [%]	solubility at 2 h [2, 4] [µM]	solubility at 2 h [2, 5] [µM]	hepatocyte CLint at 1 µM [3] [µL/min/1e6 cells]
Cc1c(F)cccc1NC(=O)/C=C/c1ccc2cn[nH]c2c1 [Comparative Example 1, (E)-N-(2-methyl-3-fluorophenyl)-3-(1H-indazol-6-yl)acrylamide, reference compound]	highly potent inhibitor of CYP2D6	0.074	86.5	0.9 (≈ 0.266 µg/mL)	4 (≈ 1.18 µg/mL)	13
Cc1c(F)cccc1NC(=O)/C=C/c1ccc2c(c1F)NC(=O)C2 [Example 5, (E)-N-(3-fluoro-2-methylphenyl)-3-(7-fluoro-2-oxoindolin-6-yl)acrylamide]	–	–	-2.57	6.78 (≈ 2.23 µg/mL)	66 (≈ 21.7 µg/mL)	–
Cc1c(F)cccc1NC(=O)/C=C/c1ccc2oc(=O)[nH]c2c1 [Example 6, (E)-N-(3-fluoro-2-methylphenyl)-3-(2-oxo-2,3-dihydrobenzo[d]oxazol-5-yl)acrylamide]	–	19	5.08	3.71 (≈ 1.16 µg/mL)	16 (≈ 5 µg/mL)	< 3
Cc1c(F)cccc1NC(=O)/C=C/c1ccc2c(c1)[nH]c(=O)n2C [Example 7, (E)-N-(3-fluoro-2-methylphenyl)-3-(1-methyl-2-oxo-2,3-dihydro-1H-benzo[d]imidazol-5-yl)acrylamide]	–	> 30	2.27	1.4 (≈ 0.455 µg/mL)	22.5 (≈ 7.32 µg/mL)	7.63
Cc1c(F)cccc1NC(=O)/C=C/c1ccc2c(c1)NC(=O)C2C (stereo not drawn) [Example 8, (E)-N-(3-fluoro-2-methylphenyl)-3-(3-methyl-2-oxoindolin-6-yl)acrylamide]	–	–	3.13	33.6 (≈ 10.9 µg/mL)	220 (≈ 71.3 µg/mL)	–
Cc1c(F)cccc1NC(=O)/C=C/c1ccc2c(c1)NC(=O)C2 [Example 10, (E)-N-(3-fluoro-2-methylphenyl)-3-(2-oxoindolin-6-yl)acrylamide]	–	> 30	3.66	4.7 (≈ 1.46 µg/mL)	74 (≈ 23 µg/mL)	3.3
Cc1cccc(C)c1NC(=O)/C=C/c1ccc2c(c1)NC(=O)C2 [Example 19, (E)-N-(2,6-dimethylphenyl)-3-(2-oxoindolin-6-yl)acrylamide]	–	–	-3.04	134 (≈ 41.1 µg/mL)	196 (≈ 60.2 µg/mL)	4.02
CCn1c(=O)[nH]c2cc(/C=C/C(=O)Nc3cccc(F)c3C)ccc21 [Example 22, (E)-3-(1-ethyl-2-oxo-2,3-dihydro-1H-benzo[d]imidazol-5-yl)-N-(3-fluoro-2-methylphenyl)acrylamide]	–	–	2.05	0.4 (≈ 0.136 µg/mL)	–	16.2
Cc1c(F)cccc1NC(=O)/C=C/c1ccc2c(c1)[nH]c(=O)n2C1CC1 [Example 23, (E)-3-(1-cyclopropyl-2-oxo-2,3-dihydro-1H-benzo[d]imidazol-5-yl)-N-(3-fluoro-2-methylphenyl)acrylamide]	–	–	0.7	6.13 (≈ 2.15 µg/mL)	–	17.4
Cc1n[nH]c2cc(/C=C/C(=O)NC3CCc4ccccc43)ccc12 (stereo not drawn) [Example 25, (E)-N-(2,3-dihydro-1H-inden-1-yl)-3-(3-methyl-1H-indazol-6-yl)acrylamide]	–	13.8	2.05	3.69 (≈ 1.17 µg/mL)	–	21.8
Cc1ccc(F)c(C)c1NC(=O)/C=C/c1ccc2c(c1)[nH]c(=O)n2C [Example 30, (E)-N-(3-fluoro-2,6-dimethylphenyl)-3-(1-methyl-2-oxo-2,3-dihydro-1H-benzo[d]imidazol-5-yl)acrylamide]	–	–	-3.33	5.73 (≈ 1.94 µg/mL)	135 (≈ 46 µg/mL)	18.1
Cc1c(F)cccc1NC(=O)/C(F)=C/c1ccc2c(c1)NC(=O)C2 [Example 47, (Z)-2-fluoro-N-(3-fluoro-2-methylphenyl)-3-(2-oxoindolin-6-yl)acrylamide]	–	–	1.91	0.5 (≈ 0.164 µg/mL)	–	4.78
CO[C@H]1Cc2ccccc2[C@@H]1NC(=O)/C=C/c1ccc2c(C)n[nH]c2c1 [Example 54, (E)-N-((1S,2S)-2-methoxy-2,3-dihydro-1H-inden-1-yl)-3-(3-methyl-1H-indazol-6-yl)acrylamide]	–	–	8.2	–	22 (≈ 7.63 µg/mL)	10.8
CO[C@H]1Cc2ccccc2[C@@H]1NC(=O)/C=C/c1ccc2c(F)n[nH]c2c1 [Example 73, (E)-3-(3-fluoro-1H-indazol-6-yl)-N-((1S,2S)-2-methoxy-2,3-dihydro-1H-Inden-1-yl)acrylamide]	–	–	34.6	–	37.5 (≈ 13.2 µg/mL)	7.7
